Experimental findings from patent US20200275624A1, “A METHOD FOR PRODUCING BANANA PLANTS WITH TOLERANCE TO FUSARIUM OXYSPORUM CUBENSIS TR4” (RAHAN MERISTEM (1998) LTD, priority 2017, published 2020) are described below.

The test concerns banana meristems. Put plainly: Micropropagation of banana meristems in media comprising a cytokinin-like substance. The test is classed as cell-based. The following applies: meristematic tissue propagation; compared with other cytokinin-like substances; TDZ in the range of 0.1 ppm. The source says: In some embodiments, during the propagation stage, and typically before exposure to the demethylating agent, the meristematic tissues are propagated, at least in one propagating cycle, in a media comprising a cytokinin-like substance. Cytokinin like substances are known in the art, and non-limiting examples, include isopentenyl adenine (2iP), kinetin (KIN), 6-Benzyladenin (BA) and 6-Benzylaminopurine (BAP), 1-phenyl-3-(1,2,3-thiadiazol-5-yl) urea (TDZ).
The presence of TDZ in the culture media is in very low amounts, typically, in the range of 0.1 ppm. This amount is sufficient to induce the desired cell division.
On the 7th cycle of propagation 0.1 ppm Thidiazuron (TDZ) was added to the medium. In cycles 20 and 21, 30 μM 5-Aza-2-Deoxycytidine (a demethylation compound) was filter sterilized and added to the medium after solidification.

The structures appear in SMILES notation.

Regarding `O=C(Nc1ccccc1)Nc1cnns1` [TDZ, 1-phenyl-3-(1,2,3-thiadiazol-5-yl) urea], the rate of multiplication result was “best rate of multiplication”.
